From PubChem BioAssay AID1549 (Sanford-Burnham Center for Chemical Genomics, 2009)
The source made the active and inactive calls. No rule for the calls is given here.

target: Influenza A virus M2 proton channel (A/TW/4845/1999 H1N1); test: NMR binding screen, influenza A virus M2 proton channel, Kd (AID 1549); settings: M2 protein

Structure (SMILES) | Kd
O=C1NNC(=O)C2C3c4ccccc4C(c4ccccc43)C12 (stereo unspecified) | > 4 mM (inactive)
CN1CCN(C(=O)c2ccco2)CC1 | > 4 mM (inactive)
OC[C@H]1O[C@@](CO)(O[C@@H]2O[C@H](CO)[C@@H](O)[C@H](O)[C@H]2O)[C@@H](O[C@@H]2O[C@H](CO)[C@@H](O)[C@H](O)[C@H]2O)[C@@H]1O | > 4 mM (inactive)
Cc1cc(OC(=O)c2c(C)cc(O)cc2O)cc(O)c1C(=O)O | > 4 mM (inactive)
c1csc(-c2nnc3ccccn23)c1 | > 4 mM (inactive)
N#Cc1cc(-c2ccccc2)oc1N | > 4 mM (inactive)
COc1ccc2c(c1)OC[C@@H](Cc1ccc(OC)c(OC)c1)[C@@H]2O | > 4 mM (inactive)
COC(=O)/C(=C1\OC(=O)C(c2ccccc2)C1=O)c1ccccc1 (stereo unspecified) | > 4 mM (inactive)
S=c1nc[nH]c2c1cnn2-c1ccccc1 | > 4 mM (inactive)
Cn1c(=O)n(-c2cccc(Cl)c2)c(=O)n1C | > 4 mM (inactive)
CN(C)c1ccc(C2CC(=O)CC(=O)C2)cc1 | > 4 mM (inactive)
COc1ccc(O)c(-c2cn[nH]c2-c2cccs2)c1 | > 4 mM (inactive)
O=C1NC(=O)C(=Cc2cccs2)C(=O)N1 | > 4 mM (inactive)
CC1=CCc2c(cc3oc(C)cc(=O)c3c2O)OC1 | > 4 mM (inactive)
Cc1onc(-c2ccccc2)c1CN | > 4 mM (inactive)
S=C(c1ccc2c(c1)OCO2)N1CCCC1 | > 4 mM (inactive)
Cn1cnc2c(Cl)ncnc21 | > 4 mM (inactive)
COc1ccc(C2(C)CC(=O)NC2=O)cc1 (stereo unspecified) | > 4 mM (inactive)
NC(=O)c1cccc(N2C(=O)C=CC2=O)c1 | > 4 mM (inactive)
COc1cc2c(cc1OC)[C@@]13CCN4CC5=CCOC6CC(=O)N2C1[C@H]6[C@H]5C[C@H]43 (stereo partly specified) | > 4 mM (inactive)
NC(=O)Cn1cnc2c(cnn2-c2ccccc2)c1=O | > 4 mM (inactive)
Cc1noc(C)c1C(=O)NC1=NCCS1 | > 4 mM (inactive)
O=S1(=O)C=CC(Nc2ccccc2)C1 (stereo unspecified) | > 4 mM (inactive)
O=C(Nn1cnnc1)c1csc2c1CCCC2 | > 4 mM (inactive)
O=C(O)CC(O)c1nc2ccccc2[nH]1 (stereo unspecified) | > 4 mM (inactive)
O=S1(=O)CCC(Nc2ccccc2)C1 (stereo unspecified) | > 4 mM (inactive)

Structure (SMILES) | Kd
N#Cc1cccc(Cn2nnc(-c3ccccc3)n2)c1 | > 4 mM (inactive)
COC(=O)NCc1cc2cc(Cl)ccc2[nH]1 | > 4 mM (inactive)
CCOC(=O)c1csc(C2COc3ccccc3O2)n1 (stereo unspecified) | > 4 mM (inactive)
O=C(Nc1cccnc1)c1c(F)cccc1F | > 4 mM (inactive)
NC(=O)c1ccc(-c2csnn2)cc1 | > 4 mM (inactive)
COc1ccc(-c2ccc(=O)n(CC(N)=O)n2)cc1 | > 4 mM (inactive)
Oc1ccc(-c2n[nH]c(=S)n2Cc2ccco2)cc1 | > 4 mM (inactive)
O=C(O)c1ccc(Oc2ccccc2)nc1 | > 4 mM (inactive)
COc1ccc(N/C(N)=N\c2nc(C)cc(C)n2)cc1 | > 4 mM (inactive)
COC(=O)Nc1nc2c(C)cccc2s1 | > 4 mM (inactive)
COc1c(F)c(F)c(-c2csc(N)n2)c(F)c1F | > 4 mM (inactive)
O=C(Nc1nnc(-c2ccccc2Cl)o1)c1ccco1 | > 4 mM (inactive)
CCNC(=O)CC[C@H](N)C(=O)O | > 4 mM (inactive)
COc1cc2[nH]c(=S)n(C)c(=O)c2cc1OC | > 4 mM (inactive)
Cn1c(=O)c2ccccc2n(Cc2ccccc2F)c1=O | > 4 mM (inactive)
C=C1C(=O)OC2CC1C(OC(C)=O)C/C(C)=C/CC/C(C)=C/CC[C@]2(C)O (stereo partly specified) | > 4 mM (inactive)
COc1c2c(cc3c1OCO3)C13C=C[C@H](OC)CC1N(C2)CC3O (stereo partly specified) | > 4 mM (inactive)
CC1=C2C(O)C(=O)OC3CC4C(C)(C)C(=O)C=C[C@]4(C)C(CC1)[C@]23C (stereo partly specified) | > 4 mM (inactive)
Cc1nc2ccccc2c2c1C(=O)N(C)C2=O | > 4 mM (inactive)
COc1ccc(C(=O)/C=C/c2ccccc2)cc1 | > 4 mM (inactive)
CC(C)=CCCC1(C)C=Cc2c(O)c3c(c(CC=C(C)C)c2O1)OC12C(=CC4CC1C(C)(C)OC2(C/C=C(/C)C(=O)O)C4=O)C3=O (stereo unspecified) | > 4 mM (inactive)
COc1cc(OC)c2c(=O)c(-c3ccccc3)coc2c1 | > 4 mM (inactive)
O=C(NCCCSc1ncccn1)Nc1ncccn1 | > 4 mM (inactive)
NC(=O)c1ccsc1NC(=O)C1=COCCO1 | > 4 mM (inactive)
Cn1ncc(NC(=O)Nc2ccc(F)cc2F)c1C(N)=O | > 4 mM (inactive)
